{"source": "patent US20240051956A1", "about": "“SOS1 INHIBITORS AND USES THEREOF” (QILU REGOR THERAPEUTICS INC., priority 2020, published 2024)", "key": {"SOS1 and KRAS G12D": {"target": "SOS1 and KRAS G12D (Homo sapiens (Human), UniProt Q07889)", "sequence (Q07889 564-1049, stated change not applied)": "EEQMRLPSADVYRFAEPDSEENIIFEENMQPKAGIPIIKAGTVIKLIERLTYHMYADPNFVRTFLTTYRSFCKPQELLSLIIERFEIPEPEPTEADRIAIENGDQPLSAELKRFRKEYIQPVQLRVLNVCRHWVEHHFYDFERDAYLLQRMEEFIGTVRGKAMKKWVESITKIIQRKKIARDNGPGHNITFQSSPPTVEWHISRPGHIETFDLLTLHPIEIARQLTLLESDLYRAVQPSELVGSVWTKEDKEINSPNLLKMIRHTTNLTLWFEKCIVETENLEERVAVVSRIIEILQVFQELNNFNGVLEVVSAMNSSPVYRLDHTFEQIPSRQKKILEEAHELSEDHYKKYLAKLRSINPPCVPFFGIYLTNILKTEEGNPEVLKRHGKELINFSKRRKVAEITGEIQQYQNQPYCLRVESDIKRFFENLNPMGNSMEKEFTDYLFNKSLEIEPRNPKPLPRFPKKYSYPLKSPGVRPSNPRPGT", "assay": "KRAS::SOS1 AlphaScreen Binding Assay", "conditions": "SOS1 (564-1049), KRAS G12D (1-169), GDP", "text": "a. KRAS::SOS1 AlphaScreen Binding Assay\nLow IC50 values of given compounds are indicative of high potency of the SOS1 inhibitor compounds in this assay setting.\n• GST-TEV-SOS1 (564-1049) and His-TEV-Avi-KRAS G12D (1-169) are purchased from Viva Biotech (Shanghai) Ltd. • GDP (Sigma, Cat. G7127) • AlphaLISA Glutathione Acceptor Beads (PerkinElmer, Cat. AL109C) • AlphaScreen Streptavidin Donor Beads (PerkinElmer, Cat. 6760002S) • Assay plates: ProxiPlate-384 Plus, White 384-shallow well Microplate (PerkinElmer, Cat. 6008280)\nSOS1 inhibitor compounds are diluted to a final start concentration of […]. Serial dilutions of compounds are made using Tecan D300e Digital Dispenser in 9 concentrations with serial 1:3 dilutions. 100 nL of compound solution is transferred to the 384-well assay plate per well, covering a range between 1 μM and 0.15 nM minimum in duplicate. 10 nM (final assay concentration) KRAS G12D, 5 nM (final assay concentration) SOS1 and 10 μM (final assay concentration) GDP are mixed in assay buffer, and 5 μL of KRAS::SOS1 GDP mix is added into the assay plate to the 100 nL of compound solution (final dilution in the assay 1:100, final DMSO concentration 1%). After a 30 min incubation, AlphaLISA Glutathione Acceptor Beads and AlphaScreen Streptavidin Donor Beads are mixed in assay buffer at a concentration of 5 µg/mL (final assay concentration), and 5 μL of bead mix is added into the assay plate. Plates are kept at room temperature in a darkened incubator for 3 h. After a 3 h incubation, the signal is determined using Envision (PerkinElmer). The excitation wavelength is 680 nm, and emission 615 nm. IC50 values are calculated and analyzed using GraphPad Prism."}, "NCI-H358": {"system": "NCI-H358", "assay": "Cell proliferation assay, 3D, CellTiter-Glo 3D", "type": "cell-based, human", "conditions": "for IC50: Homo sapiens, read-out: anit-prolif. H358 IC50", "protocol": "b. Cell Proliferation Assay\nLow IC50 values are indicative of high potency of the compounds in this assay setting.\nCell proliferation assay is performed in three-dimensional (3D) ultra-low conditions with the human cell line NCI-H358, a human non-small cell lung cancer (NSCLC) cell line with a KRAS G12C mutation.\n• 96-well Clear Round Bottom Ultra-Low Attachment Microplate (Corning, Cat. 7007) • 96-well Flat Clear Bottom White Polystyrene TC-treated Microplates (Corning, Cat. 3610) • RPMI-1640 Medium (Gibco, Cat. 22400105) • Fetal Bovine Serum (FBS) (Gibco, Cat. 10099141C) • 0.25% Trypsin-EDTA (Gibco, Cat. 25200056) • Penicillin-Streptomycin (Gibco, Cat. 15140122) • CellTiter-Glo 3D Cell Viability Assay (Promega, Cat. G9683)\nNCI-H358 cells (ATCC, Cat. CRL-5807) are grown in cell culture flasks using RPMI medium supplemented with 10% FBS. Cells are incubated at 37° C. and 5% C02 in a humidified atmosphere, with sub-cultivation performed twice a week. Cells are trypsinized, counted and plated in 96-well ultra-low adhesion plates for 3D cell viability determination. The day after plating, serial dilutions of SOS1 inhibitor compounds are made using Tecan D300e Digital Dispenser to evaluate a concentration-dependent effect on cell viability. The concentration of the test compounds covers a range between 5 μM and 0.76 nM with serial 1:3 dilutions in 9 concentrations. 0.5 μL serial dilutions of the compounds are added in duplicates. 3 days later, the CellTiter-Glo 3D Cell Viability Assay is used to measure cell viability effects of SOS1 inhibitor compounds in 3D format. Luminescent intensity is determined using Envision (PerkinElmer). Data is analyzed and IC50 values are calculated using GraphPad Prism."}, "[1]": {"assay": "Human liver microsomal stability", "type": "in vitro ADME", "conditions": "for half-life: human liver microsomes, read-out: Human liver microsomal stability, T1/2; for stability in human liver microsomal assay: in words, compound I-18 vs present compounds"}, "[2]": {"conditions": "72 h, NCI-H358 (KRAS G12C), 3D ultra-low attachment, 3 days"}}, "note": "Like-named read-outs stand apart in the source and are kept apart here."}
{"smiles": "Cc1nc(N[C@H](C)c2cccc(C(F)F)c2F)c2cn(N3CCOCC3)c(=O)c(F)c2n1", "note": "[Example 29, (R)-4-((1-(3-(difluoromethyl)-2-fluorophenyl)ethyl)amino)-8-fluoro-2-methyl-6-morpholinopyrido[4,3-d]pyrimidin-7 (6H)-one]", "values": [{"measurement": "IC50", "setting": "SOS1 and KRAS G12D", "result": "≤ 15", "unit": "nM"}, {"measurement": "IC50", "setting": "NCI-H358; [2]", "result": "≤ 100", "unit": "nM"}, {"measurement": "IC50", "setting": "NCI-H358; NCI-H358, H358 cells", "result": 49, "unit": "nM"}, {"measurement": "half-life", "setting": "[1]", "result": 2.33, "unit": "h"}, {"measurement": "stability in human liver microsomal assay", "setting": "[1]", "result": "dramatically improved"}]}
{"smiles": "Cc1nc(N[C@H](C)c2cccc(C(F)F)c2F)c2cn(N3CCOCC3)c(=O)cc2n1", "note": "[Example 1, 4-[[(1R)-1-[3-(difluoromethyl)-2-fluoro-phenyl]ethyl]amino]-2-methyl-6-morpholino-pyrido[4,3-d]pyrimidin-7-one]", "values": [{"measurement": "IC50", "setting": "SOS1 and KRAS G12D", "result": "≤ 15", "unit": "nM"}, {"measurement": "IC50", "setting": "NCI-H358; [2]", "result": "≤ 100", "unit": "nM"}, {"measurement": "IC50", "setting": "NCI-H358; NCI-H358, H358 cells", "result": 40, "unit": "nM"}, {"measurement": "half-life", "setting": "[1]", "result": 1.4, "unit": "h"}, {"measurement": "stability in human liver microsomal assay", "setting": "[1]", "result": "dramatically improved"}]}
{"smiles": "Cc1nc(N[C@H](C)c2cccc(C(F)F)c2F)c2cn(N3CCOCC3)c(=O)c(-c3ccc(S(C)(=O)=O)nc3)c2n1", "note": "[Example 61]", "values": [{"measurement": "IC50", "setting": "SOS1 and KRAS G12D", "result": "≤ 15", "unit": "nM"}, {"measurement": "IC50", "setting": "NCI-H358; [2]", "result": "≤ 100", "unit": "nM"}, {"measurement": "IC50", "setting": "NCI-H358; NCI-H358, H358 cells", "result": 31, "unit": "nM"}, {"measurement": "half-life", "setting": "[1]", "result": "> 16.7", "unit": "h"}, {"measurement": "stability in human liver microsomal assay", "setting": "[1]", "result": "dramatically improved"}]}
{"smiles": "Cc1nc(N[C@H](C)c2cccc(C(F)(F)F)c2C)c2cn(N3CCOCC3)c(=O)cc2n1", "note": "[Example 17, (R)-2-methyl-4-((1-(2-methyl-3-(trifluoromethyl)phenyl)ethyl)amino)-6-morpholinopyrido[4,3-d]pyrimidin-7(6H)-one]", "values": [{"measurement": "IC50", "setting": "SOS1 and KRAS G12D", "result": "≤ 15", "unit": "nM"}, {"measurement": "IC50", "setting": "NCI-H358; [2]", "result": "≤ 100", "unit": "nM"}, {"measurement": "IC50", "setting": "NCI-H358; NCI-H358, H358 cells", "result": 23, "unit": "nM"}, {"measurement": "half-life", "setting": "[1]", "result": 1.83, "unit": "h"}, {"measurement": "stability in human liver microsomal assay", "setting": "[1]", "result": "dramatically improved"}]}
{"smiles": "Cc1nc(N[C@H](C)c2cccc(C(F)(F)F)c2C)c2cn(N3CCOCC3)c(=O)c(F)c2n1", "note": "[Example 30]", "values": [{"measurement": "IC50", "setting": "SOS1 and KRAS G12D", "result": "≤ 15", "unit": "nM"}, {"measurement": "IC50", "setting": "NCI-H358; [2]", "result": "≤ 100", "unit": "nM"}, {"measurement": "IC50", "setting": "NCI-H358; NCI-H358, H358 cells", "result": 28, "unit": "nM"}, {"measurement": "half-life", "setting": "[1]", "result": 3.17, "unit": "h"}, {"measurement": "stability in human liver microsomal assay", "setting": "[1]", "result": "dramatically improved"}]}
{"smiles": "Cc1nc(N[C@H](C)c2cccc(C(F)F)c2F)c2cn(N3CCOCC3)c(=O)c(-c3ccc(S(C)(=O)=O)cc3)c2n1", "note": "[Example 43, 4-[[(1R)-1-[3-(difluoromethyl)-2-fluoro-phenyl]ethyl]amino]-2-methyl-8-(4-methylsulfonylphenyl)-6-morpholino-pyrido[4,3-d]pyrimidin-7-one]", "values": [{"measurement": "IC50", "setting": "SOS1 and KRAS G12D", "result": "≤ 15", "unit": "nM"}, {"measurement": "IC50", "setting": "NCI-H358; [2]", "result": "≤ 100", "unit": "nM"}, {"measurement": "IC50", "setting": "NCI-H358; NCI-H358, H358 cells", "result": 53, "unit": "nM"}, {"measurement": "half-life", "setting": "[1]", "result": "> 16.7", "unit": "h"}, {"measurement": "stability in human liver microsomal assay", "setting": "[1]", "result": "dramatically improved"}]}
{"smiles": "Cc1nc(N[C@H](C)c2cccc(C(F)F)c2F)c2cn(C3CCOCC3)c(=O)cc2n1", "note": "[Example I-18, reference compound]", "values": [{"measurement": "IC50", "setting": "NCI-H358; NCI-H358, H358 cells", "result": 164, "unit": "nM"}, {"measurement": "activity in H358 cellular assay", "setting": "NCI-H358; in words, compound I-18 vs present compounds", "result": "weaker activity"}, {"measurement": "half-life", "setting": "[1]", "result": 0.05, "unit": "h"}, {"measurement": "stability in human liver microsomal assay", "setting": "[1]", "result": "very poor stability"}]}
{"smiles": "Cc1ccc(-c2c(=O)n(N3CCOCC3)cc3c(N[C@H](C)c4cccc(C(F)F)c4F)nc(C)nc23)cn1", "note": "[Example 59]", "values": [{"measurement": "IC50", "setting": "SOS1 and KRAS G12D", "result": "≤ 15", "unit": "nM"}, {"measurement": "IC50", "setting": "NCI-H358; [2]", "result": "≤ 100", "unit": "nM"}]}
{"smiles": "Cc1nc(N[C@H](C)c2cccc(C(F)F)c2F)c2cn(N3CCOCC3)c(=O)c(-c3ccccn3)c2n1", "note": "[Example 74, (R)-4-((1-(3-(difluoromethyl)-2-fluorophenyl)ethyl)amino)-2-methyl-6-morpholino-8-(pyridin-2-yl)pyrido[4,3-d]pyrimidin-7(6H)-one]", "values": [{"measurement": "IC50", "setting": "SOS1 and KRAS G12D", "result": "≤ 15", "unit": "nM"}, {"measurement": "IC50", "setting": "NCI-H358; [2]", "result": "100 to 500", "unit": "nM"}]}
{"smiles": "Cc1nc(N[C@H](C)c2cccc(C(F)F)c2F)c2cn(N3CCCC3=O)c(=O)cc2n1", "note": "[Example 38]", "values": [{"measurement": "IC50", "setting": "SOS1 and KRAS G12D", "result": "≤ 15", "unit": "nM"}, {"measurement": "IC50", "setting": "NCI-H358; [2]", "result": "500 to 1000", "unit": "nM"}]}
{"smiles": "Cc1nc(N[C@H](C)c2cccc(C(F)F)c2F)c2cn(N3CCOCC3)c(=O)c(-c3cnn(C)c3)c2n1", "note": "[Example 70]", "values": [{"measurement": "IC50", "setting": "SOS1 and KRAS G12D", "result": "≤ 15", "unit": "nM"}, {"measurement": "IC50", "setting": "NCI-H358; [2]", "result": "100 to 500", "unit": "nM"}]}
{"smiles": "Cc1nc(N[C@H](C)c2cccc(C(F)F)c2F)c2cn(N3CCOCC3)c(=O)c(-c3cnn(CCO)c3)c2n1", "note": "[Example 53]", "values": [{"measurement": "IC50", "setting": "SOS1 and KRAS G12D", "result": "≤ 15", "unit": "nM"}, {"measurement": "IC50", "setting": "NCI-H358; [2]", "result": "≤ 100", "unit": "nM"}, {"measurement": "IC50", "setting": "NCI-H358; NCI-H358, H358 cells", "result": 60, "unit": "nM"}, {"measurement": "half-life", "setting": "[1]", "result": 0.733, "unit": "h"}, {"measurement": "stability in human liver microsomal assay", "setting": "[1]", "result": "dramatically improved"}]}
